The nature of data set [1]: Lipophilicity, logD of compound in octanol-water at pH 7.4 by reverse phase HPLC analysis. The format is physicochemical.
A short description of data set [2]: Oral bioavailability in C57 BL/6 or CD-1 mouse at 1 mg/kg measured upto 24 hrs by LC-MS/MS analysis. As to conditions: in vivo. The format is ADME, organism-based.
The nature of data set [3]: Lipophilicity, logD of compound in octanol-water at pH 7.4 by shake-flask method. The format is physicochemical.

Take `Cc1ncsc1-c1ccc([C@H](C)NC(=O)[C@@H]2C[C@@H](O)CN2C(=O)[C@@H](NC(=O)CCCCCC(=O)N2CCN(CC[C@H](CSc3ccccc3)Nc3ccc(S(=O)(=O)NC(=O)c4ccc(N5CCN(CC6=C(c7ccc(Cl)cc7)CCC(C)(C)C6)CC5)cc4)cc3S(=O)(=O)C(F)(F)F)CC2)C(C)(C)C)cc1` [DT-2216]: the logD in data set [1] (read-out: logD) stood at 7.3; in data set [3] (read-out: logD) it was 3.9. Besides, in data set [2], the bioavailability came out at 0.07%.
For `Cc1ncsc1-c1ccc(CNC(=O)[C@@H]2C[C@@H](O)CN2C(=O)[C@@H](NC(=O)C2(F)CC2)C(C)(C)C)c(OCCOc2ccc(CN3CCN(c4cc(-c5ccccc5O)nnc4N)CC3)cc2)c1` the same measures were 4.2, 3.1 and 2.7%.
Regarding `Cn1c(=O)n(C2CCC(=O)NC2=O)c2cccc(C#CCOC3CCN(C[C@H]4CC[C@H](n5cc(NC(=O)c6cnn7ccc(N8C[C@H]9C[C@@H]8CO9)nc67)c(C(F)F)n5)CC4)CC3)c21` (stereo not given in full) [KT-474], the logD in data set [1] amounted to 2.4; in data set [3] (read-out: logD), 3.5. The bioavailability in data set [2] was 23.7%.
Take `COc1cc(O[C@H]2C(C)(C)[C@H](NC(=O)c3ccc(N4CCC(CN5CCN(c6ccc(C(=O)N[C@H]7CCC(=O)NC7=O)c(F)c6)CC5)CC4)cc3)C2(C)C)ccc1C#N` [LUXDEGALUTAMIDE]: the logD in data set [1] (read-out: logD) came to 5; in data set [3] (read-out: logD) it was 3.7. The molecule further displayed a bioavailability in data set [2] of 57.6%.
As to `CCOC(=O)C1=C(C)NC(C)=C(C(=O)OC)C1c1cccc(Cl)c1Cl` (stereo not given) [FELODIPINE], the logD in data set [1] came to 5.2.
In the case of `CC1(C)[C@H](NC(=O)c2ccc(N3CCN(CC4CCN(c5ccc6c(c5)C(=O)N(C5CCC(=O)NC5=O)C6=O)CC4)CC3)cc2)C(C)(C)[C@H]1Oc1ccc(C#N)c(Cl)c1` (stereo not given in full), the logD in data set [1] (read-out: logD) was found to be 6.2; in data set [3] (read-out: logD), 4.6. The molecule also showed a bioavailability in data set [2] of 61.4%.
Consider `CC(=O)CC(c1ccccc1)c1c(O)c2ccccc2oc1=O` (stereo not given) [WARFARIN], for which the logD in data set [1] (read-out: logD) worked out at 0.78.
Turning to `O=C1CC[C@H](N2Cc3cc(N4CCN(CC5CCN(c6ccc([C@@H]7c8ccc(O)cc8CC[C@@H]7c7ccccc7)cc6)CC5)CC4)ccc3C2=O)C(=O)N1` [VEPDEGESTRANT], the logD in data set [1] came to 5.7; in data set [3] (read-out: logD) it was 4.6. Further, in data set [2], the bioavailability came to 58.5%.
With `Cc1nc(CCC(=O)NCCCCC(=O)N[C@H](C(=O)N2C[C@H](O)C[C@H]2C(=O)NCc2ccc(-c3scnc3C)cc2)C(C)(C)C)ccc1-c1cnc(NCc2c(Cl)ccc3c2CCO3)n2cnnc12`, the logD in data set [1] (read-out: logD) worked out at 2.5; in data set [3] (read-out: logD), 3.8. In data set [2], the bioavailability was 0%.
For `N#Cc1ccc(O[C@H]2CC[C@H](NC(=O)c3ccc(N4CCC(CN5CCN(c6cc7c(cc6F)C(=O)N(C6CCC(=O)NC6=O)C7=O)CC5)CC4)nn3)CC2)cc1Cl` (stereo not given in full) [BAVDEGALUTAMIDE] the same measures were 5, 4.8 and 64.6%.
Turning to `CC(C)(C)NC(=O)[C@@H]1C[C@@H]2CCCC[C@@H]2CN1C[C@@H](O)[C@H](Cc1ccccc1)NC(=O)[C@H](CC(N)=O)NC(=O)c1ccc2ccccc2n1`, in data set [1] (read-out: logD), the logD worked out at 4.5.
In the case of `COC(=O)N[C@H](C(=O)N[C@@H](Cc1ccccc1)[C@@H](O)CN(Cc1ccc(-c2ccccn2)cc1)NC(=O)[C@@H](NC(=O)OC)C(C)(C)C)C(C)(C)C` [ATAZANAVIR], the logD in data set [1] is given as 4.2.
For the molecule `C=CCc1ccccc1OCC(O)CNC(C)C` (stereo not given) [ALPRENOLOL], the logD in data set [1] (read-out: logD) was determined as 1.5.
For `Cc1ncsc1-c1ccc(CNC(=O)[C@@H]2C[C@@H](O)CN2C(=O)[C@@H](NC(=O)COCCOCCOCCNC(=O)C[C@@H]2N=C(c3ccc(Cl)cc3)c3c(sc(C)c3C)-n3c(C)nnc32)C(C)(C)C)cc1`, the logD in data set [1] (read-out: logD) stood at 3.4; in data set [3] it was 3.8. In data set [2], this molecule yielded a bioavailability of 0.16%.
Take `COC(=O)C1=C(C)NC(C)=C(C(=O)OCCN(C)Cc2ccccc2)C1c1cccc([N+](=O)[O-])c1` (stereo not given) [NICARDIPINE]: in data set [1] (read-out: logD), the logD was 5.
The same measure, in the same setting: the result for `CN(C)CCC=C1c2ccccc2C=Cc2ccccc21` [CYCLOBENZAPRINE] reads 3.1; that for `CC1(C)CCC(CN2CCN(c3ccc(C(=O)NS(=O)(=O)c4ccc(NCC5CCOCC5)c([N+](=O)[O-])c4)c(Oc4cnc5[nH]ccc5c4)c3)CC2)=C(c2ccc(Cl)cc2)C1` [VENETOCLAX], 7.9.

In general, logD refers to lipophilicity at a set pH, counting ionised and neutral species. A word on the bioavailability: it is dose-corrected exposure relative to a reference, in per cent.

The values are drawn from ChEMBL document CHEMBL6127126, “Closing the Design-Make-Test-Analyze Loop: Interplay between Experiments and Predictions Drives PROTACs Bioavailability” (J Med Chem, 2024).
